Patent publication US20190002492A1, “DERIVATIVES OF ALLOPR[…] OF EPIALLOPR[…] USES THEREOF FOR TREATING A NEUROPATHOLOGICAL CONDITION” (UNIVERSITE DE STRASBOURG, priority 2011, published 2019)

Legend:
[1] = system: SH-SY5Y human neuroblastomas; test: Neuroprotection against cell death caused by oxidizing stress (H2O2), MTT readout; format: cell-based; design: key to Neuroprotective effect against cell death caused by oxidizing stress: −: no effect; +: low effect; ++: high effect; +++: very high effect; details: H2O2 1 mM; for Neuroprotective effect against cell death caused by oxidizing stress: SH-SY5Y cultures, 24 or 48 hours, MTT; for Protection of human neuroblastomas from cell death caused by H2O2 (in words): SH-SY5Y
Description: The cellular model used to carry out the in vitro experiments is a line of human neuroblastomas called line SH-SY5Y.
The human neuroblastoma is a cultivated at 37° C. in a humidity saturated atmosphere, under 5% CO2 in a culture medium formed by DMEM with an added 10% (v/v) fetal calf serum, 5% (v/v) horse serum, 2 mM glutamax and 1% (v/v) of the penicillin/streptomycin mixture.
The human neuroblastomas were incubated with the culture medium alone or containing the chief inducing agent of oxidizing stress, hydrogen peroxide (H2O2), at various concentrations in order to determine the concentrations of H2O2 and the incubation times causing the death of a significant percentage of the cells. The neuroprotective properties of the BR053, BR338, BR297 and BR351 derivatives were determined by pretreating the SH-SY5Y cells with the culture medium alone or respectively containing the BR053, BR338, BR297 or BR351 derivative. After pretreatment, each of these categories of cells was integrated for 24 hours or 48 hours with the following solutions: (i) culture medium; (ii) culture medium containing only the BR053, BR338, BR297 or BR351 derivative; (iii) culture medium containing only H2O2 at a concentration of 1 mM, which causes a high percentage of cell death; (iv) culture medium containing both H2O2 (1 mM) and one of the BR053, BR338, BR297 or BR351 derivatives.
10 μl of a stock solution of tetrazolium, abbreviated MTT, at 3.6 mM was added in each well and the incubation continued in darkness for 5 h at 37° C. After cell lysis, spectrophotometer measurements at 595 nm were carried out to determine the survival and cell density under each of the conditions described above.

[2] = system: human neuroblastoma cells; test: Whole-cell patch-clamp without GABA in the recording pipette (non-GABAergic effects); format: cell-based; details: GABA not added in the recording pipette
Excerpt: The present Invention relates to derivatives of allopregnanolone or of epipregnanolone that primarily and clearly create a cellular effect that is completely independent of the GABAa receptors. In fact, electrophysiological experiments conducted on human neuroblastoma cells using a Patch-Clamp technique, in a Patch-Clamp whole cell configuration, made it possible to see that when the GABA is not in the pipette, i.e., not introduced, or when the GABAa receptors are not activated, said derivatives were capable of inducing a specific cellular activity.
These experiments were carried out under the same recording conditions as the electrophysiological studies described above (A5), with the exception of the GABA, which was not added into the recording pipette.

Sprague-Dawley rats [3] = test: Von Frey filament test, painful neuropathy caused by vincristine; format: in vivo, rat; details: rats with vincristine neuropathy, 4 mg/kg i.p. every 2 days for 2 weeks
Excerpt: (§1) Adult male Sprague-Dawley rats weighing between 250 and 300 g were used. They came from the company Janvier (le Genest St. Isle, France). The care and handling of the animals were done in accordance with the guidelines from the Council of the European Community (86/609/EC) and in accordance with the ethical rules of the International Association for the Study of Pain. The protocol used to carry out the in vivo studies was subject to examination and authorization granted to Prof. Mensah-Nyagan's team by the Alsatian Department of the Veterinary Public Health Guide for the Care and Use of Laboratory Animals (Approval number 67-186). The rats were housed under standard conditions with a photoperiod of 12 h day/12 h night, with unlimited food and water. The animals spent one acclimatization week before being integrated into the experimental protocols. Each animal was examined daily to detect any signs of deterioration of its health condition, such as dramatic weight loss, a decrease in appetite during chemotherapy and pharmacological treatment.
Vincristine sulfate (VINC), purchased from Sigma-Aldrich (St. Louis, Mo., USA), was dissolved in a physiological saline solution (NaCl 0.9%) at 0.1 mg/ml and stored at 4° C. The saline solution (NaCl 0.9%) is used as excipient. The VINC is injected daily by intraperitoneal injection (i.p.), in 2 cycles of 5 days separated by 2 days off, at a concentration of 0.1 mg/kg/day. The control animals were injected by i.p. (1 ml/kg) with the excipient using a similar protocol.
(§2) The allopregnanolone in the derivatives according to the invention (BR053 and BR297) were diluted in a hydroxypropylcellulose (HPC) solution (0.3%) used as excipient. The curative treatment with allopregnanolone, BR053 or BR297 began 3 days after the vincristine cycles. Each of these compounds (allopregnanolone, BR053 or BR297) was administered by the intraperitoneal route at a dose of 4 mg/kg at a rate of one injection every 2 days. Thus, over the total duration of the in vivo experiments (14 days), each animal received 7 injections of excipient, allopregnanolone, BR053 or BR297, based on its group, at a dose of 4 mg/kg. The animals were sacrificed 24 hours after the last behavioral test (28th day) to remove tissues that will be used for later histology and electrophysiology studies.
(§3) The mechanical nociceptive sensitivity threshold was evaluated in rats placed in individual Plexiglas boxes (30×30×25 cm) mounted on a raised mesh support thereby allowing access to the surface or arch of the back feet. The presence of allodynia (exaggerated response following a normally […] stimulation) was measured using a series of calibrated von Frey filaments (1, 2, 4, 6, 8, 10, 15, 26, 100, 180 and 300 g; Stoelting, Wood Dale, Ill., USA), which were applied on the sole of the back foot of the animal with increasing force until the filament twisted. The filament was applied for a period of 1 to 2 seconds and the procedure was repeated 5 times at 4-5 second intervals. The withdrawal threshold of the foot was calculated by taking the average of […] repeated stimuli (in grams) that caused a reflex to withdraw the foot. Only vigorous and fast withdrawals of the foot were considered positive. In the experiments, the naïve animals never responded to the 4 g filament and responded 25-30% of the time to the 15 g filament.

Sprague-Dawley rats [4] = test: Von Frey mechanical nociceptive sensitivity threshold in healthy animals not treated with vincristine; format: in vivo, rat; details: 4 mg/kg every 2 days for 2 weeks
Excerpt: as §1, §2
as §3, with “In the experiments, the naïve animals never responded to the 4 g filament and responded 25-30% of the time to the 15 g filament.” left out

| SMILES | Neuroprotective effect against cell death caused by oxidizing stress [1] | Protection of human neuroblastomas from cell death caused by H2O2 (in words) [1] | Induction of cellular activity without GABA (non-GABAergic effect) [2] | Effect on mechanical allodynia and mechanical hyperalgesia (Sprague-Dawley rats [3]) | Anti-nociceptive effect in healthy animals (Sprague-Dawley rats [4]) |
| --- | --- | --- | --- | --- | --- |
| CC(=O)[C@H]1CCC2C3CC[C@H]4C[C@@H](O)CC[C@]4(C)C3CC(=O)[C@@]21C (stereo partly shown) [BR053] | +++ | capable of protecting human neuroblastomas from the cell death | capable of inducing cellular activity | eliminates the symptoms | does not cause any anti-nociceptive effect |
| C=CCO[C@H]1CC[C@]2(C)C3CC[C@@]4(C)C(CC[C@@H]4C(C)=O)C3CC[C@H]2C1 (stereo partly shown) [BR297] | ++ | capable of protecting human neuroblastomas from the cell death | capable of inducing cellular activity | eliminates the symptoms | does not cause any anti-nociceptive effect |
